PubChem BioAssay (NCI)
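All cell lines were grown in 96-well plates and treated with compound for 48 hours. Here, GI50 denotes the concentration required for 50% inhibition of growth. The concentration for full growth arrest is given as TGI.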

Experiments:
Experiment in all cases: DTP human tumour cell line panel, 48 h
786-0 renal = system: 786-0 renal
A498 renal = system: A498 renal
A549 NSCLC = system: A549 NSCLC
ACHN renal = system: ACHN renal
BT-549 breast = system: BT-549 breast
CAKI-1 renal = system: CAKI-1 renal
CCRF-CEM leukemia = system: CCRF-CEM leukemia
COLO 205 colon = system: COLO 205 colon
DU-145 prostate = system: DU-145 prostate
EKVX NSCLC = system: EKVX NSCLC
HCC-2998 colon = system: HCC-2998 colon
HCT-116 colon = system: HCT-116 colon
HCT-15 colon = system: HCT-15 colon
HL-60(TB) leukemia = system: HL-60(TB) leukemia
HOP-62 NSCLC = system: HOP-62 NSCLC
HOP-92 NSCLC = system: HOP-92 NSCLC
HS 578T breast = system: HS 578T breast
HT29 colon = system: HT29 colon
IGROV1 ovarian = system: IGROV1 ovarian
K-562 leukemia = system: K-562 leukemia
KM12 colon = system: KM12 colon
LOX IMVI melanoma = system: LOX IMVI melanoma
M14 melanoma = system: M14 melanoma
MALME-3M melanoma = system: MALME-3M melanoma
MCF7 breast = system: MCF7 breast
MDA-MB-231 breast = system: MDA-MB-231 breast
MDA-MB-435 = system: MDA-MB-435
MOLT-4 leukemia = system: MOLT-4 leukemia
NCI-H226 lung = system: NCI-H226 lung
NCI-H23 lung = system: NCI-H23 lung
NCI-H460 lung = system: NCI-H460 lung
NCI-H522 lung = system: NCI-H522 lung
NCI/ADR-RES ovarian = system: NCI/ADR-RES ovarian
OVCAR-3 ovarian = system: OVCAR-3 ovarian
OVCAR-4 ovarian = system: OVCAR-4 ovarian
OVCAR-5 ovarian = system: OVCAR-5 ovarian
OVCAR-8 ovarian = system: OVCAR-8 ovarian
PC-3 prostate = system: PC-3 prostate
RPMI-8226 leukemia = system: RPMI-8226 leukemia
RXF 393 renal = system: RXF 393 renal
SF-268 CNS = system: SF-268 CNS
SF-295 CNS = system: SF-295 CNS
SF-539 CNS = system: SF-539 CNS
SK-MEL-2 melanoma = system: SK-MEL-2 melanoma
SK-MEL-28 melanoma = system: SK-MEL-28 melanoma
SK-MEL-5 melanoma = system: SK-MEL-5 melanoma
SK-OV-3 ovarian = system: SK-OV-3 ovarian
SN12C renal = system: SN12C renal
SNB-19 CNS = system: SNB-19 CNS
SNB-75 CNS = system: SNB-75 CNS
SR leukemia = system: SR leukemia
SW-620 colon = system: SW-620 colon
T-47D breast = system: T-47D breast
TK-10 renal = system: TK-10 renal
U251 CNS = system: U251 CNS
UACC-257 melanoma = system: UACC-257 melanoma
UACC-62 melanoma = system: UACC-62 melanoma
UO-31 renal = system: UO-31 renal

CCOc1ccccc1C(=O)N1CCN(c2cc(Cl)cc(Cl)c2)CC1
GI50 (786-0 renal): 0.0624 µM
TGI (786-0 renal): 14.8 µM
GI50 (A498 renal): 0.0288 µM
TGI (A498 renal): 4.36 µM
GI50 (A549 NSCLC): 0.0429 µM
TGI (A549 NSCLC): 15.8 µM
GI50 (ACHN renal): 0.051 µM
TGI (ACHN renal): 14.6 µM
GI50 (BT-549 breast): 0.0429 µM
TGI (BT-549 breast): 4.34 µM
GI50 (CAKI-1 renal): 0.0257 µM
TGI (CAKI-1 renal): 12.5 µM
GI50 (CCRF-CEM leukemia): 0.0357 µM
TGI (CCRF-CEM leukemia): 33.5 µM
GI50 (COLO 205 colon): 0.0287 µM
TGI (COLO 205 colon): 0.0853 µM
GI50 (DU-145 prostate): 0.0468 µM
TGI (DU-145 prostate): 14 µM
GI50 (EKVX NSCLC): 0.0587 µM
TGI (EKVX NSCLC): 17.3 µM
GI50 (HCC-2998 colon): 0.0381 µM
TGI (HCC-2998 colon): 10.7 µM
GI50 (HCT-116 colon): 0.0325 µM
TGI (HCT-116 colon): 4.02 µM
GI50 (HCT-15 colon): 0.0322 µM
TGI (HCT-15 colon): 10.9 µM
GI50 (HL-60(TB) leukemia): 0.0254 µM
TGI (HL-60(TB) leukemia): 0.078 µM
GI50 (HOP-62 NSCLC): 0.0416 µM
TGI (HOP-62 NSCLC): 15.8 µM
GI50 (HOP-92 NSCLC): 0.182 µM
TGI (HOP-92 NSCLC): 12.9 µM
GI50 (HS 578T breast): 0.0327 µM
TGI (HS 578T breast): 16.4 µM
GI50 (HT29 colon): 0.0316 µM
TGI (HT29 colon): 2.29 µM
GI50 (IGROV1 ovarian): 0.0408 µM
TGI (IGROV1 ovarian): 13.9 µM
GI50 (K-562 leukemia): 0.0286 µM
TGI (K-562 leukemia): 25.8 µM
GI50 (KM12 colon): 0.0361 µM
TGI (KM12 colon): 13.6 µM
GI50 (LOX IMVI melanoma): 0.031 µM
TGI (LOX IMVI melanoma): 13.1 µM
GI50 (M14 melanoma): 0.0293 µM
TGI (M14 melanoma): 1.72 µM
GI50 (MALME-3M melanoma): 0.624 µM
TGI (MALME-3M melanoma): 22.9 µM
GI50 (MCF7 breast): 0.0321 µM
TGI (MCF7 breast): 12.2 µM
GI50 (MDA-MB-231 breast): 0.0444 µM
TGI (MDA-MB-231 breast): 12.3 µM
GI50 (MDA-MB-435): 0.0157 µM
TGI (MDA-MB-435): 0.0527 µM
GI50 (MOLT-4 leukemia): 0.0424 µM
TGI (MOLT-4 leukemia): 21 µM
GI50 (NCI-H226 lung): 0.839 µM
TGI (NCI-H226 lung): 6.55 µM
GI50 (NCI-H23 lung): 0.0491 µM
TGI (NCI-H23 lung): 9.46 µM
GI50 (NCI-H460 lung): 0.0362 µM
TGI (NCI-H460 lung): 11.9 µM
GI50 (NCI-H522 lung): 0.0142 µM
TGI (NCI-H522 lung): 0.358 µM
GI50 (NCI/ADR-RES ovarian): 0.0231 µM
TGI (NCI/ADR-RES ovarian): 5.64 µM
GI50 (OVCAR-3 ovarian): 0.0391 µM
TGI (OVCAR-3 ovarian): 12.4 µM
GI50 (OVCAR-4 ovarian): 0.266 µM
TGI (OVCAR-4 ovarian): 18.5 µM
GI50 (OVCAR-5 ovarian): 0.0552 µM
TGI (OVCAR-5 ovarian): 16.2 µM
GI50 (OVCAR-8 ovarian): 0.0371 µM
TGI (OVCAR-8 ovarian): 14.2 µM
GI50 (PC-3 prostate): 0.0346 µM
TGI (PC-3 prostate): 12.6 µM
GI50 (RPMI-8226 leukemia): 0.0369 µM
TGI (RPMI-8226 leukemia): 5.32 µM
GI50 (RXF 393 renal): 0.0175 µM
TGI (RXF 393 renal): 1.06 µM
GI50 (SF-268 CNS): 0.112 µM
TGI (SF-268 CNS): 18.7 µM
GI50 (SF-295 CNS): 0.0252 µM
TGI (SF-295 CNS): 0.779 µM
GI50 (SF-539 CNS): 0.0252 µM
TGI (SF-539 CNS): 0.412 µM
GI50 (SK-MEL-2 melanoma): 1.13 µM
TGI (SK-MEL-2 melanoma): 18.4 µM
GI50 (SK-MEL-28 melanoma): 3.55 µM
TGI (SK-MEL-28 melanoma): 22.2 µM
GI50 (SK-MEL-5 melanoma): 0.0345 µM
TGI (SK-MEL-5 melanoma): 0.177 µM
GI50 (SK-OV-3 ovarian): 0.258 µM
TGI (SK-OV-3 ovarian): 9.14 µM
GI50 (SN12C renal): 0.0493 µM
TGI (SN12C renal): 14.7 µM
GI50 (SNB-19 CNS): 0.0432 µM
TGI (SNB-19 CNS): 15.8 µM
GI50 (SNB-75 CNS): 0.474 µM
TGI (SNB-75 CNS): 14.3 µM
GI50 (SR leukemia): 0.0335 µM
TGI (SR leukemia): 22 µM
GI50 (SW-620 colon): 0.0415 µM
TGI (SW-620 colon): 15.8 µM
GI50 (T-47D breast): 0.393 µM
TGI (T-47D breast): 29.9 µM
GI50 (TK-10 renal): 9.16 µM
TGI (TK-10 renal): 24 µM
GI50 (U251 CNS): 0.0407 µM
TGI (U251 CNS): 14.3 µM
GI50 (UACC-257 melanoma): 4.19 µM
TGI (UACC-257 melanoma): 25.8 µM
GI50 (UACC-62 melanoma): 0.0203 µM
TGI (UACC-62 melanoma): 16 µM
GI50 (UO-31 renal): 0.0978 µM
TGI (UO-31 renal): 16 µM
